“And” between values parts separate entries of the source, which are not always exact repeats. Equal values may be shown once.
Tested on: WM3248 melanoma cells, 486 antibodies
Assay: Reverse phase protein arrays (RPPA)
Assay type: cell-based, Human
Excerpt: Pellets were snap frozen in liquid nitrogen and shipped to MD Anderson Cancer Center core RPPA facility for RPPA analysis (Table S5). Three biological replicates for each sample were generated.
Nomenclatures on the RPPA heatmaps: name_of_antibody.species_of_antibody.status_of_antibody. V - antibody validated; C - validation of antibody in progress; Q - antibody nonspecific; E – under evaluation; antibodies raised in M - mouse, G - goat, R - rabbit, or T - rat.

## CN(C)c1cccc(Nc2cc(-c3ccccc3)nc(C3CCNCC3)n2)c1 [ARN22089, N1,N1-dimethyl-N3-(6-phenyl-2-(piperidin-4-yl)pyrimidin-4-yl)benzene-1,3-diamine]
Norm_5 Average
  Caspase.8.cleaved.R.C normalized signal: 0.982
  Caveolin.1.R.V normalized signal: 0.855
  Cdc6.R.V normalized signal: 0.979
  Cdc42.R.C normalized signal: 1.009
  Chk1.M.C normalized signal: 0.909
  Chk2.M.V normalized signal: 0.853
  Chk2_pT68.R.C normalized signal: 1.060
  Claudin.7.R.V normalized signal: 0.926
  Collagen.VI.R.V normalized signal: 1.116
  Complex.II.Subunit.M.V normalized signal: 0.975
  Cox2.R.C normalized signal: 1.135
  Cox.IV.R.V normalized signal: 1.022
  CtIP.R.V normalized signal: 0.975
  Cyclin.B1.R.V normalized signal: 0.972
  Cyclin.D3.M.V normalized signal: 0.904
  Cyclin.E1.R.V normalized signal: 0.936
  DAPK1_pS308.M.C normalized signal: 1.256
  DDB.1.R.V normalized signal: 1.059
  DDR1_pY513.R.C normalized signal: 0.981
  DM.K9.Histone.H3.M.V normalized signal: 0.933
  DNA.Ligase.IV.R.C normalized signal: 1.034
  DNA_POLG.R.V normalized signal: 0.987
  c.Jun_pS73.R.V normalized signal: 0.785
  c.Met_pY1234_Y1235.R.V normalized signal: 1.005
  c.Myc.R.C normalized signal: 1.002
  cdc2_pY15.R.C normalized signal: 1.020
  cdc25C.R.V normalized signal: 0.901
Norm_5 replicates
  C.Raf.R.C normalized signal: 0.928 and 0.922 and 1.015
  C.Raf_pS338.R.V normalized signal: 1.100 and 1.059 and 1.133
  CA9.R.C normalized signal: 0.890 and 0.944 and 0.999
  CD2.M.C normalized signal: 0.910 and 0.933 and 1.035
  CD4.R.V normalized signal: 1.047 and 1.004 and 1.101
  CD5.M.C normalized signal: 0.985 and 1.051
  CD20.R.C normalized signal: 0.992 and 1.004 and 0.765
  CD26.R.V normalized signal: 0.918 and 1.107 and 0.927
  CD29.M.V normalized signal: 0.891 and 0.950 and 1.049
  CD31.M.V normalized signal: 0.904 and 0.900 and 1.048
  CD38.R.C normalized signal: 0.928
  CD44.R.C normalized signal: 0.917 and 1.058 and 0.855
  CD45.M.V normalized signal: 0.930 and 1.021
  CD49b.M.V normalized signal: 0.968 (2×) and 1.000
  CD68.M.C normalized signal: 0.960 and 0.996 and 0.977
  CD74.M.V normalized signal: 0.856 and 0.898 and 1.027
  CD134.R.V normalized signal: 0.925 and 0.944
  CD171.M.V normalized signal: 0.619 and 0.917 and 0.812
  CDK1_pT14.R.C normalized signal: 0.861 and 1.206
  CDK9.R.V normalized signal: 0.898 and 0.959 and 1.009
  CDKN2A.R.C normalized signal: 0.913 and 0.846 and 1.064
  CDT1.R.V normalized signal: 0.876 and 0.937
  CENP.A.R.V normalized signal: 0.837 and 1.027
  CHD1L.R.V normalized signal: 0.984 and 0.980 and 1.062
  CIITA.R.C normalized signal: 0.906 and 1.032 and 0.908
  COG3.R.V normalized signal: 1.065 and 1.046 and 1.027
  CRABP1.R.C normalized signal: 0.859 and 0.948
  CRABP2.R.V normalized signal: 0.835 and 0.922
  CREB_pS133.R.C normalized signal: 0.973 and 1.049
  CSK.R.C normalized signal: 0.899 and 0.615
  Calnexin.R.V normalized signal: 0.886 and 0.995 and 1.007
  Caspase.3.cleaved.R.C normalized signal: 1.021 and 1.056
  Caspase.7.cleaved..R.C normalized signal: 0.975 and 1.120
  Caspase.8.M.Q normalized signal: 0.995 and 1.011
  Caspase.8.cleaved.R.C normalized signal: 0.959 and 0.968 and 1.018
  Caveolin.1.R.V normalized signal: 0.695 and 1.083 and 0.788
  Cdc6.R.V normalized signal: 1.013 and 0.837
  Cdc42.R.C normalized signal: 0.983 and 0.959
  Chk1.M.C normalized signal: 0.847 and 0.901 and 0.979
  Chk1_pS296.R.V normalized signal: 1.011 and 0.821 and 1.014
  Chk1_pS345.R.C normalized signal: 1.085 and 0.937
  Chk2.M.V normalized signal: 0.877 and 0.935 and 0.746
  Chk2_pT68.R.C normalized signal: 1.018 and 1.050 and 1.112
  Claudin.7.R.V normalized signal: 0.960 and 0.997 and 0.822
  Collagen.VI.R.V normalized signal: 1.125 and 1.077 and 1.148
  Complex.II.Subunit.M.V normalized signal: 0.952 and 1.023
  Connexin.43.R.C normalized signal: 1.236 and 0.956
  Coup.TFII.R.C normalized signal: 1.082 and 1.017
  Cox2.R.C normalized signal: 1.108 and 1.155 and 1.142
  Cox.IV.R.V normalized signal: 1.004 and 1.021
  Creb.R.C normalized signal: 1.017
  CtIP.R.V normalized signal: 1.022 and 0.990 and 0.914
  Cyclin.B1.R.V normalized signal: 0.618 and 1.059 and 1.239
  Cyclin.D1.R.C normalized signal: 0.917 and 1.018
  Cyclin.D3.M.V normalized signal: 0.934 and 0.919 and 0.861
  Cyclin.E1.R.V normalized signal: 0.930 and 0.904 and 0.974
  Cyclophilin.F.M.V normalized signal: 0.842 and 0.856
  D.a.Tubulin.R.V normalized signal: 1.019 and 1.128
  DAPK1_pS308.M.C normalized signal: 1.353 and 1.627 and 0.788
  DAPK2.R.C normalized signal: 1.191 and 1.026
  DDB.1.R.V normalized signal: 1.062 and 0.816 and 1.300
  DDR1.R.V normalized signal: 0.866 and 0.933 and 1.046
  DDR1_pY513.R.C normalized signal: 0.890 and 1.005 and 1.047
  DJ1.R.V normalized signal: 1.019 and 1.054
  DM.Histone.H3.R.V normalized signal: 0.978 and 1.119 and 1.017
  DM.K9.Histone.H3.M.V normalized signal: 0.882 and 0.936 and 0.982
  DNA.Ligase.IV.R.C normalized signal: 1.083 and 0.953
  DNA_POLG.R.V normalized signal: 1.009 and 1.004
  c.Jun_pS73.R.V normalized signal: 0.798 and 0.640 and 0.915
  c.Kit.R.V normalized signal: 1.128 and 0.954
  c.Met_pY1234_Y1235.R.V normalized signal: 0.983 and 1.008 and 1.024
  c.Myc.R.C normalized signal: 0.935 and 1.002
  cGAS.R.V normalized signal: 0.859 and 0.966 and 1.027
  cdc2_pY15.R.C normalized signal: 1.026 and 1.124
  cdc25C.R.V normalized signal: 0.919 and 0.928 and 0.857
Norm_10, normalized to Norm_0
  MYH11.R.C Average: 1.438
  Myosin.IIa.R.C Average: 1.143
  Myosin.IIa_pS1943.R.V Average: 1.250
  Myt1.R.C Average: 0.974
  N.Cadherin.R.V Average: 1.013
  N.Ras.M.V Average: 0.937
  NAPSIN.A.R.C Average: 1.005
  NDRG1_pT346.R.V Average: 1.345
  NDUFB4.R.V Average: 1.030
  NRF2.R.C Average: 0.980
  Notch1.R.V Average: 0.957
  Notch1.cleaved.R.V Average: 0.977
  Notch3.R.C Average: 1.054
  Oct.4.R.C Average: 1.008
  P.Cadherin.R.C Average: 1.101
  PAI.1.M.V Average: 0.931
  PAICS.R.C Average: 0.957
  PAK1.R.V Average: 0.905
  PAK4.R.V Average: 1.019
  PAK_pS474_S602_S560.R.V Average: 1.098
  PAK_pT423_T402.R.C Average: 1.015
  PAR.R.C Average: 1.104
  PARG.R.C Average: 1.019
  PARP.R.V Average: 1.149
  PAX6.R.V Average: 0.956
  PAX8.R.C Average: 1.011
  PCNA.M.C Average: 0.988
  PD.1.R.V Average: 0.998
  PD.L1.R.C Average: 0.960
  PDH.M.V Average: 0.958
  PDK1.R.V Average: 1.058
  PDK1_pS241.R.V Average: 0.934
  PEA.15.R.V Average: 1.020
  PEA.15_pS116.R.V Average: 0.996
  PERK.R.V Average: 1.061
  PHGDH.R.C Average: 0.964
  PHLPP.R.V Average: 1.190
  PI3K.p85.R.C Average: 1.002
  PI3K.p110.a.R.C Average: 0.864
  PI3K.p110.b.M.C Average: 0.990
  PKA.a.R.V Average: 0.941
  PKC.a.b.II_pT638_T641.R.V Average: 0.894
  PKC.b.II_pS660.R.V Average: 0.986
  PKCa.R.V Average: 1.017
  PKM2.R.C Average: 1.046
  PLC.gamma1.R.V Average: 1.192
  PLC.gamma1_pS1248.R.V Average: 1.153
  PLC.gamma2_pY759.R.V Average: 1.003
  PLK1.R.C Average: 0.886
  PMS2.R.V Average: 1.014
  PR.R.V Average: 0.988
  PRAS40.M.C Average: 1.046
  PRAS40_pT246.R.V Average: 1.016
  PRC1_pT481.R.C Average: 1.014
  Patched.R.C Average: 0.952
  Paxillin.R.C Average: 0.862
  Pdcd4.R.C Average: 0.987
  Porin.M.V Average: 1.053
  p21.R.C Average: 0.934
  p27_pT157.R.C Average: 1.162
  p27_pT198.R.V Average: 1.113

— article PMC9127750, “Structure-based design of CDC42 effector interaction inhibitors for the treatment of cancer” (Cell reports, 2022)
